Assay results published in paper PMC5567816 (ACS chemical biology, 2017).
pIC50: −log10 of the molar value. “Also recorded” adds a separate entry of the source.

Key:
Hek293 cells [1] = test: Western blot of Hek293 cells, histone and tubulin acetylation; assay type: cell-based; conditions: inhibitors 1 μM, tubA 0.5 μM, 24 h
Hek293 cells [2] = test: global formylation levels of Hek293 cells; assay type: cell-based; conditions: inhibitors 1 μM, tubA 0.5 μM, 24 h
Hek293 cells [3] = test: global valerylation levels of Hek293 cells; assay type: cell-based; conditions: inhibitors 1 μM, tubA 0.5 μM, 24 h
RAW264.7 macrophages = test: NO production in LPS-challenged RAW264.7 macrophages; assay type: cell-based; conditions: 1 μM; decrease completely offset when normalized
RAW264.7 cells [4] = test: cell viability of RAW264.7 cells; assay type: cell-based
class IIa HDACs = conditions: cited from earlier work
A549 cell line = conditions: reasonable concentrations; cited from earlier work
Hek293 lysates = test: deacylase activities of Hek293 lysates with inhibitors; assay type: cell-based; conditions: 24 h; vorinostat and PD-106 1 μM, tubA 0.5 μM
RAW264.7 cells [5] = test: HMGB-1 secretion from activated RAW264.7 cells; assay type: cell-based; conditions: LPS-activated RAW264.7; 6 h
RAW264.7 cells [6] = test: p65 and HDAC3 subcellular localization in LPS-treated RAW264.7 cells; assay type: cell-based; conditions: after LPS treatment
HDAC3 = HDAC3 (Homo sapiens, UniProt O15379); test: HDAC3 coincubated with TFA substrate and inhibitor
RAW264.7 cells [7] = test: Western blot of RAW264.7 cells, protein acetylation; assay type: cell-based; conditions: tubA at 0.5 μM
HDAC6 = HDAC6 specific inhibitor; cited from earlier work
HCT116 and HT29 cells = conditions: 2 μM for 24 h; cited from earlier work

Chain of HDAC3 (O15379 whole entry): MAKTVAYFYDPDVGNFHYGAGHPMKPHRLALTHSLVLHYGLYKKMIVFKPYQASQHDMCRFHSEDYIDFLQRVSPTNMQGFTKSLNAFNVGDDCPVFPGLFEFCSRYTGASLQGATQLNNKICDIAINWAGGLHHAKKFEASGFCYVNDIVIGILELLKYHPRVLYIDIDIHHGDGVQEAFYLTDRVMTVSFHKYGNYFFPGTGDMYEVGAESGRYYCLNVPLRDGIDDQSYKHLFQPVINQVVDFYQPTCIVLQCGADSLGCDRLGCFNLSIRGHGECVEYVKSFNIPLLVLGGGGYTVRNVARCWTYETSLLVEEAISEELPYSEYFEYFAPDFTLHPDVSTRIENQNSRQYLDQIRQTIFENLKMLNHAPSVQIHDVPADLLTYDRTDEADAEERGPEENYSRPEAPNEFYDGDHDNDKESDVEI
Chain of HDAC3 (Q9Y618 395-489 partner limits assumed): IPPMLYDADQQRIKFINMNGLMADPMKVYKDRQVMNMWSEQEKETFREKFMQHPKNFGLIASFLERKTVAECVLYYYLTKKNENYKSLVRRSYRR

| SMILES | histone H3 and H4 acetylation (Hek293 cells [1]) | tubulin acetylation (Hek293 cells [1]) | global protein formylation (Hek293 cells [2]) | global protein valerylation (Hek293 cells [3]) | NO release, before normalization to cell count/viability (RAW264.7 macrophages) | lethality (cell viability) (RAW264.7 cells [4]) | inhibitory activity for class IIa HDACs (class IIa HDACs) | p53 Lys373 and Lys382 acetylation (A549 cell line) | deacetylase activity of Hek293 lysates (Hek293 lysates) | deformylase activity of Hek293 lysates (Hek293 lysates) | devalerylase activity of Hek293 lysates (Hek293 lysates) | HMGB-1 secretion (RAW264.7 cells [5]) | nuclear localization of HDAC3 (RAW264.7 cells [6]) | effect on HDAC3's ability to deacylate the TFA substrate (HDAC3) | p53 Lys382 acetylation (RAW264.7 cells [7]) | pIC50 (HDAC6) | p53 Lys382 acetylation (HCT116 and HT29 cells) |
| --- | --- | --- | --- | --- | --- | --- | --- | --- | --- | --- | --- | --- | --- | --- | --- | --- | --- |
| Nc1ccccc1NC(=O)c1ccc(CNC(=O)OCc2cccnc2)cc1 [entinostat] | induced hyperacetylation of histones | without affecting tubulin acetylation levels | also capable of this effect | global protein hypervalerylation | did lower NO release | more lethal than 2a–2c | – | – | – | – | – | – | – | – | – | – | – |
| O=C(NO)C(c1ccccc1)c1ccccc1 [dPAHA, diphenyl acetic hydroxamic acid] | – | – | – | – | – | – | only possesses the ability to inhibit class IIa HDACs | – | – | – | – | – | – | – | – | – | – |
| C/C=C1\NC(=O)[C@H]2CSSCC/C=C/[C@H](CC(=O)N[C@H](C(C)C)C(=O)N2)OC(=O)[C@H](C(C)C)NC1=O [romidepsin] | – | – | – | – | – | – | – | induce hyperacetylation of Lys373 and Lys382 | – | – | – | – | – | – | – | – | – |
| O=C(CCCCCCC(=O)Nc1ccccc1)NO [vorinostat] | induced hyperacetylation of tubulin and histones H3 and H4 | induced hyperacetylation of tubulin and histones H3 and H4 | caused global protein hyperformylation | global protein hypervalerylation | did lower NO release | more lethal than 2a–2c | – | – | inhibit both deacetylation and deformylation; also recorded: lowering in both deacetylation and devalerylation | inhibit both deacetylation and deformylation | lowering in both deacetylation and devalerylation | prevents HMGB-1 secretion | not as pronounced | capable of altering HDAC3’s ability to deacylate the TFA substrate | – | – | – |
| CN1CCc2c(c3ccccc3n2Cc2ccc(C(=O)NO)cc2)C1 [Tubastatin A] | only affected acetylated tubulin levels | only affected acetylated tubulin levels | induced global protein hyperformylation | nonsignificant hypovalerylation | – | – | – | – | did not affect overall deacetylation activity; also recorded: no effect on deacetylation or devalerylation | did lower deformylation activity | no effect on deacetylation or devalerylation | – | – | – | do not demonstrate this increase | […] | able to induce hyperacetylation of Lys382 |
